# Data published in BindingDB's records for doi:10.1111/cbdd.12174 (Washington State University At Pullman, 2013).
# Target: T1, Glutamate carboxypeptidase 2 [44-750] (Homo sapiens, UniProt Q04609)
# T1 construct: 44-750
# Assay: IC50 Assay
# Conditions: pH 7.4; 37 °C
# Method: Inhibitors were made in TRIS buffer (50mM Tris pH 7.4 containing 1% Triton X-100). Working solutions of purified GCPII (50ug/mL) were diluted in TRIS buffer to provide from 15% to 20% conversion of substrate to product in the absence of inhibitor. The incubation mixture (final volume 250μL) contained either 25μL of an inhibitor solution or 25μL TRIS buffer to 175μ TRIS buffer in a test tube, followed by the addition of PABGgG (25μL, […]). The enzymatic reaction was initiated by the addition of 25μL of the GCPII working solution and allowed to proceed for 15min with constant shaking at 37°C. The reaction was quenched by the addition of 25μL methanolic TFA (2% trifluoroacetic acid by volume in methanol) followed by vortexing. The quenched mixture was immediately buffered by the addition of 25μL K2HPO4 (0.1M), vortexed, and centrifuged.
# T1 sequence (Q04609 44-750): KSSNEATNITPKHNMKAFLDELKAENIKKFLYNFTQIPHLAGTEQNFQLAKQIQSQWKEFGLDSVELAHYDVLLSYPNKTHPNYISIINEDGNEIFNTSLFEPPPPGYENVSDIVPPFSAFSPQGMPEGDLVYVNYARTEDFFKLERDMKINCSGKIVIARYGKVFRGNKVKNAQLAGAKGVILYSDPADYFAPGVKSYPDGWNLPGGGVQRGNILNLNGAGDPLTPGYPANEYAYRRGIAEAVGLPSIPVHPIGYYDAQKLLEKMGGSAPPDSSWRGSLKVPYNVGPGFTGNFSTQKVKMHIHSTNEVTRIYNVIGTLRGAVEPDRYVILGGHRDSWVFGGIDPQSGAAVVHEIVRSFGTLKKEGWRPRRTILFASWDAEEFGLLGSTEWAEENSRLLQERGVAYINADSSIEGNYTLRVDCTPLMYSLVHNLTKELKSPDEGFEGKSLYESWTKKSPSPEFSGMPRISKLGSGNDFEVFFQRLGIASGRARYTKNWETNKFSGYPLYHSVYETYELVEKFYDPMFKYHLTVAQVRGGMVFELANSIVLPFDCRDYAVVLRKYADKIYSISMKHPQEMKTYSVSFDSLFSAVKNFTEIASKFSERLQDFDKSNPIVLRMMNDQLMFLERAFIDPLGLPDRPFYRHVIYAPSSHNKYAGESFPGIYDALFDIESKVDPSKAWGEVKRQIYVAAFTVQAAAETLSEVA
structure (smiles),measurement,value
O=C(O)CC[C@H](NS(=O)(=O)NC[C@H](NC(=O)c1ccccc1)C(=O)O)C(=O)O [(S)-2-((N-((S)-2-benzamido-2-carboxyethyl)sulfamoyl)amino)pentanedioic acid (2b)],IC50,> 100 µM
